Assay [1] deals with PTEN (Homo sapiens, UniProt P60484). The following applies: read-out: IC50, inhibits PTEN; cited from earlier work.
Assay [2] concerns ovarian grafts. Description: Ovarian grafting under kidney capsule of FSH-treated hosts: graft weights and follicle counting. Format: in vivo, mice. Here is the method:
FIG. 3. Additive effects of Hippo signaling disruption and Akt stimulation promoted secondary follicle growth. A) Secondary follicles are responsive to IVA treatment. Secondary follicles (115 um in diameter) were isolated from mice at day 10 of age and cultured in vitro with the standard IVA protocol (first day with bPV(hopic) at 3 mM and 740YP at 15 ug/ml, followed by one more day with 740YP alone), followed by treatment with daily FSH (100 ng/ml) for two more days (IVA+FSH). The control groups were either treatment with media alone for four days or treated with the IVA reagent for two days followed by media alone (IVA alone). B) Ovarian fragmentation and IVA treatment led to additive effects on ovarian weight gain and secondary follicle growth. Paired ovaries from mice at day 10 of age were fragmented into three pieces. Fragments from one side were treated with the IVA protocol (bpV(hopic) at 30 uM and 740YP at 150 ng/ml for one day, followed by one more day with 740YP only) whereas fragments from the contralateral side were incubated in media alone. Ovarian fragments were then allo-transplanted into kidney capsules of adult ovariectomized mice with hosts injected with FSH (daily at 1 IU/animal). Five 5 days later, ovarian grafts were retrieved, fixed and weighted. Left panel: graft weights; right panel: Follicle dynamics of grafted ovarian fragments. Percentages of follicles at different stages were determined based on serial sections of grafts. C, Follicle dynamics before and after grafting of intact and fragmented murine ovaries with or without treatment with Akt stimulators. Left: total follicle numbers, Right: follicle dynamics. n=4. Same letter symbols indicate significant differences (p<0.05). D-F. Vitrified human cortical strips were thawed and fragmented into cubes before treatment with Akt stimulators for 2 days followed by grafting into immune-deficient mice for 4 weeks. D. Cortical strips before grafting. Arrow: a secondary follicle, arrowheads: primordial/primary follicles. Scale bar, 100 μm. E. A kidney graft in situ (left) and after isolation (right), showing an antral follicle. F. Histology of two large antral follicles with the side view of one showing an oocyte at the germinal vesicle stage (arrow). Scale bar, 1 mm. Mean±SEM; * p<0.05.
(§1) FIG. 7. Pre-treatment with verteporfin and CCN2 antibodies suppressed fragmentation-induced ovarian growth. A, Pretreatment with verteporfin suppressed fragmentation-induced increases in CCN2, but not AMH, transcript levels. Juvenile mice were injected i.p. with verteporfin for 3 h before retrieving ovaries for fragmentation. At 4 h after incubation, transcript levels for CCN2 and AMH were determined by real-time RT-PCR. n=6-12. […] Ovaries from juvenile mice pre-injected with verteporf in for 3 h were fragmented and incubated for 1 h before grafting into FSH-treated hosts for 5 days followed by determination of graft weights. Numbers in parentheses are number of samples used. C, Follicle dynamics of intact and fragmented ovarian grafts from animals with or without verteporf in (VP) pretreatment. n=3-5. D, Incubation of fragmented ovaries with CCN2 antibodies suppressed ovarian weight increases. Paired ovaries were fragmented into 3 pieces followed by incubation with CCN2 antibodies or non-immune-IgG for 18 h before grafting for 5 days. Mean±SEM; *p<0.05.
Left upper panel: Paired ovaries from day 10 mice were treated with or without JASP (10 μM) for 30 min. before analyses of F- and G-actin content. Left lower panel: Real-time RT-PCR analyses of CCN2 transcript levels after 30 min. exposure to JASP. Right panel: Immunoblotting analyses of CCN2 protein levels after 30 min. treatment with JASP. Upper panel: Immunoblotting analyses. Lower panel: quantitative analyses of densitometric scanning data. Numbers in parentheses are number of samples used. * p<0.05. […]

Assay [3] concerns AMH transcripts. Description: Real-time RT-PCR of AMH transcripts after verteporfin pretreatment and ovarian fragmentation. It counts as in vivo. To be noted: day 10 mice injected i.p. for 3 h before fragmentation; 4 h after incubation. Here is the method: as §1
(§2) Roles of Hippo signaling and CCN2 in fragmentationinduced follicle growth: YAP has no transcriptional activity and its actions are dependent on downstream transcriptional factors. […]
On the technique in general: In qPCR the cycle at which signal appears reflects the starting amount.

In assay [4] the test system is CCN2 transcripts. Briefly: Real-time RT-PCR of CCN2 transcripts after verteporfin pretreatment and ovarian fragmentation. It counts as in vivo. The following applies: day 10 mice injected i.p. for 3 h before fragmentation; 4 h after incubation. Here is the method:
as §1, §2

Assay [5] concerns oocytes. The following applies: intrabursal treatment; cited from earlier work.
For assay [6], the system named is ovaries from day 10 mice. Briefly: Ovarian explant cultures: ovarian weight and follicle dynamics. It counts as cell-based. To be noted: for ovarian explant weights: explants from day 10 mice cultured with CCN growth factors for 4 days. The procedure:
FIG. 2. […] A, Ovarian fragmentation increased F-actin levels. Paired ovaries from day 10 mice were cut into 3 pieces or kept intact before immunoblotting analyses of F- and G-actin levels (upper panel). Lower panel: F- to G-actin ratios. N=6-11. B, Ovarian fragmentation decreased phospho-YAP(pYAP) levels and pYAP to total YAP ratios. Paired ovaries with or without cutting were incubated for 1 h, followed by immunoblotting. Left panel: representative immunoblots; Right panel: ratios of different antigens. n=8 pairs. C, Ovarian fragmentation increased expression of CCN growth factors and BIRC apoptosis inhibitors. Paired ovaries with or without cutting were incubated for 1 h […] before analyses of transcript levels normalized by GAPDH. Intact ovaries: solid lines; pooled 3 pieces: dashed lines. n=10-15. D, Ovarian fragmentation increased CCN2 proteins. Paired ovaries with or without cutting were incubated for 3-5 h before immunoblotting. Upper panel: representative blots; lower panel: quantitative analyses. N=3-5. E, Treatment with CCN2, 3, 5, and 6 increased ovarian explant weights. Explants from day 10 mice were cultured with different CCN growth factors for 4 days before weighing. n=5-6. Mean±SEM; * p<0.05. IN=Intact; PI=Pieces.
FIG. 6. Increased expression of CCN growth factors and BIRO inhibitors after ovarian fragmentation and the ability of CCN growth factors to promote follicle development. A, Ovarian fragmentation without subsequent grafting increased the expression of key CCN growth factors (CCN2, 3, 5, and 6) and apoptosis inhibitors (BIRC1 and 7). Paired ovaries from day 10 mice with or without cutting into 3 pieces were incubated for up to 7 h before analyses of transcript levels for different genes. Intact ovaries: solid lines; three pieces: dashed lines. n=10-15. B, Increases in CCN2 expression in somatic cells of fragmented ovaries. Paired ovaries from day 10 mice with or without cutting into 3 pieces were cultured for 1 h and then transplanted under kidney capsules. At 3 h after transplantation, ovaries were dissected followed by isolation of oocytes and somatic cells as previously described (2). CCN2 and GAPDH mRNA levels were measured by real-time RT-PCR (n=4). *, P<0.05 vs intact. C. Treatment with CCN growth factors promoted preantral follicle development in ovarian explants. Following explant cultures with different CCN growth factors, follicle dynamics were determined by counting the percentages of follicles at different developmental stages. Mean±SEM; *p<0.05, n=5.
Ovaries from day 10 mice were placed on culture plate insert (Millipore) and cultured in DMEM/F12 containing 0.1% BSA, 0.1% Albumax II, insulin-transferrin-selenium, 0.05 mg/ml L-ascorbic acid and penicillin-streptomycin for 4 days with medium changes after 2 days of culture as described. At the end of culture, ovarian weight was measured and some of the ovaries were embedded for histological analyses of follicle dynamics.
We tested the ability of S1P to promote follicle growth. […] We hypothesized that S1P acts through its receptors in granulosa cells to trigger actin polymerization, disrupt Hippo signaling and promote follicle growth.

Where [7] appears, read: pretreatment for 3 h, grafting 5 days.

The source of these data is US20150231209A1, “STIMULATION OF OVARIAN FOLLICLE DEVELOPMENT AND OOCYTE MATURATION” (THE BOARD OF TRUSTEES OF THE LELAND STANFORD JUNIOR …, priority 2012, published 2015).

Chain of PTEN (P60484 whole entry): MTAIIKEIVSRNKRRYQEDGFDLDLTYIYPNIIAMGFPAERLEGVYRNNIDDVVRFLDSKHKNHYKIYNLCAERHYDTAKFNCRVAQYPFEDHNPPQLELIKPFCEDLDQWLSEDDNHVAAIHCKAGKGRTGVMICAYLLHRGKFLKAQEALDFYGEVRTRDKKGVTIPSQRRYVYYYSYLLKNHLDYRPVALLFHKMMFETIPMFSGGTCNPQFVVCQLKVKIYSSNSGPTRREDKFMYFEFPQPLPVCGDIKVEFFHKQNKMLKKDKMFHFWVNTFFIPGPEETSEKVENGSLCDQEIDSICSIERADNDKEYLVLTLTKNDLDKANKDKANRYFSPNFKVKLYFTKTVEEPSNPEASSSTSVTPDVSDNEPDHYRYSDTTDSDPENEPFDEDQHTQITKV

“dipotassium bisperoxo(5-hydroxypyridine-2-carboxyl)oxovanadate (V)”: the IC50 in assay [1] is 14 nM.

In the case of verteporfin, the “graft weights, intact versus fragmented pairs” value in assay [2] (pretreatment for 3 h, fragmentation, grafting into FSH-treated hosts for 5 days) is given as “no significant changes”. Also, in assay [2] (setting [7]), the antral/preovulatory follicles entry is listed as “smaller suppression”, the “fragmentation induced increases in late secondary follicles” value is recorded as “prevented” and the “total follicles in grafts” value is given as “no loss of total follicles”. The “transcripts for anti-Müllerian hormone (AMH)” value in assay [3] is “without affecting”. In addition, the “fragmentation-induced increases in CCN2 transcripts” value in assay [4] is “blocked”.

On to `CCCCCCCCCCCCC/C=C/[C@@H](O)[C@@H](N)COP(=O)(O)O` [S1P, sphingosine 1-phosphate], for which the “oocyte apoptosis induced by X-irradiation” value in assay [5] is reported as “suppressed”. For the same molecule, the graft weights result in assay [2] (6 μM S1P for 18 h, grafting into adult ovariectomized hosts for 5 days) is reported as “increases in graft weights”. The “ovarian weights in explant culture” value in assay [6] (6 μM, 4 days, ovaries from day 10 mice) is “major increases in ovarian weights”.

In the case of “potassium bisperoxo(bipyridine)oxovanadate (V)”, the IC50 in assay [1] was 18 nM.

Consider `O=C([O-])c1ccccn1.OO.OO.[K+].[K+].[OH-].[V]` [dipotassium bisperoxo(picolinato)oxovanadate (V)], for which the half-inhibitory concentration (IC50) in assay [1] was 31 nM.

For the molecule `OO.OO.[K+].[OH-].[V].c1cnc2c(c1)ccc1cccnc12` [potassium bisperoxo (1,10-phenanthroline)oxovanadate (V)], in assay [1], the IC50 is 38 nM.

B1: CCN5: CCN growth factor protein (protein, UniProt O76076 24-250, looked up)
CCN family member 5: QLCPTPCTCPWPPPRCPLGVPLVLDGCGCCRVCARRLGEPCDQLHVCDASQGLVCQPGAGPGGRGALCLLAEDDSSCEVNGRLYREGETFQPHCSIRCRCEDGGFTCVPLCSEDVRLPSWDCPHPRRVEVLGKCCPEWVCGQGGGLGTQPLPAQGPQFSGLVSSLPPGVPCPEWSTAWGPCSTTCGLGMATRVSNQNRFCRLETQRRLCLSRPCPPSRGRSPQNSAF
As to B1, the ovarian explant weights entry in assay [6] is reported as “dose-dependent increases”.

B2: CCN6: CCN growth factor protein (protein, UniProt O95389 24-354, looked up)
Cellular communication …: TGPLDTTPEGRPGEVSDAPQRKQFCHWPCKCPQQKPRCPPGVSLVRDGCGCCKICAKQPGEICNEADLCDPHKGLYCDYSVDRPRYETGVCAYLVAVGCEFNQVHYHNGQVFQPNPLFSCLCVSGAIGCTPLFIPKLAGSHCSGAKGGKKSDQSNCSLEPLLQQLSTSYKTMPAYRNLPLIWKKKCLVQATKWTPCSRTCGMGISNRVTNENSNCEMRKEKRLCYIQPCDSNILKTIKIPKGKTCQPTFQLSKAEKFVFSGCSSTQSYKPTFCGICLDKRCCIPNKSKMITIQFDCPNEGSFKWKMLWITSCVCQRNCREPGDIFSELKIL
Consider B2, for which the ovarian explant weights result in assay [6] was “dose-dependent increases”.

B3: CCN2: CCN growth factor protein, acts downstream of disrupted Hippo signaling (protein, UniProt P29279 27-349, looked up)
CCN family member 2: QNCSGPCRCPDEPAPRCPAGVSLVLDGCGCCRVCAKQLGELCTERDPCDPHKGLFCHFGSPANRKIGVCTAKDGAPCIFGGTVYRSGESFQSSCKYQCTCLDGAVGCMPLCSMDVRLPSPDCPFPRRVKLPGKCCEEWVCDEPKDQTVVGPALAAYRLEDTFGPDPTMIRANCLVQTTEWSACSKTCGMGISTRVTNDNASCRLEKQSRLCMVRPCEADLEENIKKGKKCIRTPKISKPIKFELSGCTSMKTYRAKFCGVCTDGRCCTPHRTTTLPVEFKCPDGEVMKKNMMFIKTCACHYNCPGDNDIFESLYYRKMYGDMA
For B3, the ovarian explant weights result in assay [6] was “dose-dependent increases”.

B4: CCN3: CCN growth factor protein (protein, UniProt P48745 32-357, looked up)
CCN family member 3: TQRCPPQCPGRCPATPPTCAPGVRAVLDGCSCCLVCARQRGESCSDLEPCDESSGLYCDRSADPSNQTGICTAVEGDNCVFDGVIYRSGEKFQPSCKFQCTCRDGQIGCVPRCQLDVLLPEPNCPAPRKVEVPGECCEKWICGPDEEDSLGGLTLAAYRPEATLGVEVSDSSVNCIEQTTEWTACSKSCGMGFSTRVTNRNRQCEMLKQTRLCMVRPCEQEPEQPTDKKGKKCLRTKKSLKAIHLQFKNCTSLHTYKPRFCGVCSDGRCCTPHNTKTIQAEFQCSPGQIVKKPVMVIGTCTCHTNCPKNNEAFLQELELKTTRGKM
As to B4, in assay [6], the ovarian explant weights entry is “dose-dependent increases”.

One may read the IC50 as the concentration needed to halve the response being measured.
